Data as given in patent publication US20200030355A1, “COMBINATION THERAPY FOR TREATING CANCER” (Epizyme, Inc., priority 2014, published 2020).
Like-named read-outs stand apart in the source and are kept apart here.

Tests used:
Format in all cases: cell-based, human
MOLM-13 cells = experiment: EPZ-5676 300 nM 7-day pre-treatment, then second compound 72 hours, ATPLite, IC50 shift (Example 6); conditions: 300 nM EPZ-5676 or DMSO 7-day pre-treatment, then 2nd compound 72 hours, Synergy = IC50 of 2nd compound decreased by 2-fold or more vs DMSO control
Protocol: (§1) Cells were then equilibrated in incubators for 24 hours before treatment with a second compound. Treated assay plates were incubated with a second compound for 72 hours. After this time, plates were developed for endpoint analysis using ATPLite to measure ATP content, which is used as an indicator of cell viability.
(§2) “N/D” means that IC50 of the second compound could not be determined for both conditions.

SKM-1 cells = experiment: as above
Protocol: as §1, §2

MOLM-13 (MLL-AF9) [1] = experiment: Combination proliferation study with Compound A2 (ATP/CellTiter-Glo, Chou-Talalay combination index); conditions: 7 Day Cotreatment Model, Table 5
Protocol: The acute myelogenous leukemia cell lines MV4-11 (MLL-AF4) and MOLM-13 (MLL-AF9) were obtained from American Type Culture Collection (ATCC; Rockville, Md.) and Deutsche Sammlung von Mikroorganismen and Zellkulturen (DSMZ; Braunschweig, Germany) respectively.
(§3) Studies were performed using MLL-rearranged cell lines in vitro to evaluate the anti-proliferative effect of a combination of two agents together on cell growth. Initial proliferation studies were performed to determine the IC50 of a given compound in each cell line. The cell counts were measured by ATP quantitation using the Promega Cell Titer Glo kit and luminescence values corresponded to the amount of ATP in a given well.
Compounds were evaluated for synergy in the co-treatment phase by testing the compounds in a concentration range which was bracketed around their IC50 values. The compounds were plated to a 96 well plate in a matrix format (FIG. 3) which includes increasing concentrations of each drug in the combination in a constant ratio, in addition to the effect of each compound alone in the study. Cells were seeded and grown in the log-linear phase for 3 or 7 days in the co-treatment phase. Minimum inhibition (DMSO alone) controls were used in each plate to calculate fraction affected (Fa) of a test well. DMSO concentration was kept at 0.1% v/v.
The drug combination analysis was performed utilizing the Chou-Talalay method Synergy was determined using the software package Calcusyn by Biosoft. The combination index (CI) is a quantitative term used to describe the level of synergy or antagonism in a given test system. A combination index less than one indicates synergy, and a CI greater than one indicates antagonism. Further, strong synergism is achieved when the CI value falls below 0.3.
Graphs representing values of combination index (CI) versus Fractional effect (Fa) known as Fa-CI plots were generated and synergy was evaluated. Drug synergy was statistically defined by CI values less than 1, antagonism by CI>1 and additive effect by CI equal to 1.
Graphs representing values of combination index (CI) versus Fractional effect (Fa) known as Fa-CI plots were generated and synergy was evaluated. Drug synergy was statistically defined by CI values less than 1, antagonism by CI>1 and additive effect by CI equal to 1. […]
Cell viability was measured via ATP content using CellTiter-Glo® (Promega).
as §3, with “Proliferation studies” for “Studies”, “MOLM-13, MV4-11 and SKM-1” for “MLL-rearranged”, “cancer cell killing” for “anti-proliferative”, “IC50 values” for “IC50”, “correspond” for “corresponded”, “well. […]” for “well.”
Compounds evaluated for synergy in the co-treatment phase were tested in a range which was bracketed around the IC50's.

MOLM-13 (MLL-AF9) [2] = experiment: EPZ-5676 7-day pre-treatment, then second compound 72 hours, growth inhibition GI100 shift; primary screen and retest (Example 7); conditions: 300 nM EPZ-5676 7-day pre-treatment; second compound 72 hours; ATPLite
Protocol: as §1
Cells were then treated with a second compound for 72 hours. After this time, plates were developed for endpoint analysis using Cell Titer Glo to measure ATP content, which is used as an indicator of cell viability.
“N/D” means the GI100 of the second compound could not be determined for both conditions and “-” means not tested.
Growth Inhibition (GI) as a measure of cell viability: The cell viability of vehicle was measured at the time of dosing the second agent (T0) and after seventy-two hours (T72). […] A GI 200% represents complete death of all cells in the culture well. Compounds reaching an activity plateau of GI 200% are considered cytotoxic. GI is calculated by applying the following test and equation: […]
where T is the signal measure for a test article, V is the vehicle-treated control measure, and V0 is the vehicle control measure at time zero.

[3] = SKM-1 cells, 300 nM EPZ-5676 or DMSO 7-day pre-treatment, then 2nd compound 72 hours, ATPLite, Synergy = IC50 of 2nd compound decreased by 2-fold or more vs DMSO control

Compound: O=C(/C=C/c1ccc(O)c(O)c1)OCCc1ccccc1 [CAPE]
- MOLM-13 (summary of combination study: EPZ-5676 + 2nd compound) (MOLM-13 cells): Synergy (considered synergistic if the IC50 value of the second compound decreased by 2-fold or more when EPZ-5676 was added as compared to the DMSO control)
- SKM-1 (summary of combination study: EPZ-5676 + 2nd compound) (SKM-1 cells; [3]): Synergy (considered synergistic if the IC50 value of the second compound decreased by 2-fold or more when EPZ-5676 was added as compared to the DMSO control)

Compound: CC1=C(/C=C/C(C)=C/C=C/C(C)=C/C(=O)O)C(C)(C)CCC1 [Tretinoin]
- MOLM-13 (summary of combination study: EPZ-5676 + 2nd compound) (MOLM-13 cells): Synergy (considered synergistic if the IC50 value of the second compound decreased by 2-fold or more when EPZ-5676 was added as compared to the DMSO control)
- SKM-1 (summary of combination study: EPZ-5676 + 2nd compound) (SKM-1 cells; [3]): Synergy (considered synergistic if the IC50 value of the second compound decreased by 2-fold or more when EPZ-5676 was added as compared to the DMSO control)

Compound: NC1(c2ccc(-c3nc4ccn5c(=O)[nH]nc5c4cc3-c3ccccc3)cc2)CCC1 [MK2206]
- Combination with Compound A2, MOLM13 (MOLM-13 (MLL-AF9) [1]): Additive (additive effect by CI equal to 1)
- MOLM-13 (summary of combination study: EPZ-5676 + 2nd compound) (MOLM-13 cells): Synergy (considered synergistic if the IC50 value of the second compound decreased by 2-fold or more when EPZ-5676 was added as compared to the DMSO control)
- SKM-1 (summary of combination study: EPZ-5676 + 2nd compound) (SKM-1 cells; [3]): Synergy (considered synergistic if the IC50 value of the second compound decreased by 2-fold or more when EPZ-5676 was added as compared to the DMSO control)

Compound: Cn1c(Nc2ccc(C(F)(F)F)cc2)nc2cc(Oc3ccnc(-c4ncc(C(F)(F)F)[nH]4)c3)ccc21 [RAF265]
- Combination with EPZ-5676, MOLM-13 (MLL-AF9) Primary screen (MOLM-13 (MLL-AF9) [2]): Synergy (considered synergistic if the GI100 (Growth inhibition 100) value of the second compound decreased by 2-fold or more when EPZ-5676 was added as compared to the DMSO control)

Compound: COCc1c(C(C)C)nc(C(C)C)c(/C=C/[C@@H](O)C[C@@H](O)CC(=O)O)c1-c1ccc(F)cc1 [Cerivastatin Sodium]
- MOLM-13 (summary of combination study: EPZ-5676 + 2nd compound) (MOLM-13 cells): Synergy (considered synergistic if the IC50 value of the second compound decreased by 2-fold or more when EPZ-5676 was added as compared to the DMSO control)
- SKM-1 (summary of combination study: EPZ-5676 + 2nd compound) (SKM-1 cells; [3]): Synergy (considered synergistic if the IC50 value of the second compound decreased by 2-fold or more when EPZ-5676 was added as compared to the DMSO control)

Compound: COc1cc2c(NC3CCN(C4CCCCC4)CC3)nc(N3CCCN(C(C)C)CC3)nc2cc1OCCCN1CCCCC1 [UNC 0646]
- MOLM-13 (summary of combination study: EPZ-5676 + 2nd compound) (MOLM-13 cells): Synergy (considered synergistic if the IC50 value of the second compound decreased by 2-fold or more when EPZ-5676 was added as compared to the DMSO control)
- SKM-1 (summary of combination study: EPZ-5676 + 2nd compound) (SKM-1 cells; [3]): Synergy (considered synergistic if the IC50 value of the second compound decreased by 2-fold or more when EPZ-5676 was added as compared to the DMSO control)

Compound: O=C(c1cn(Cc2cncn2Cc2ccc(Br)cc2)cc1-c1cccc2ccccc12)N1CCOCC1 [LB42708]
- MOLM-13 (summary of combination study: EPZ-5676 + 2nd compound) (MOLM-13 cells): Synergy (considered synergistic if the IC50 value of the second compound decreased by 2-fold or more when EPZ-5676 was added as compared to the DMSO control)
- SKM-1 (summary of combination study: EPZ-5676 + 2nd compound) (SKM-1 cells; [3]): Synergy (considered synergistic if the IC50 value of the second compound decreased by 2-fold or more when EPZ-5676 was added as compared to the DMSO control)

Compound: Cc1sc2c(c1C)C(c1ccc(Cl)cc1)=N[C@@H](CC(=O)Nc1ccc(O)cc1)c1nnc(C)n1-2 [OTX015]
- MOLM-13 (summary of combination study: EPZ-5676 + 2nd compound) (MOLM-13 cells): Synergy (considered synergistic if the IC50 value of the second compound decreased by 2-fold or more when EPZ-5676 was added as compared to the DMSO control)
- SKM-1 (summary of combination study: EPZ-5676 + 2nd compound) (SKM-1 cells; [3]): Synergy (considered synergistic if the IC50 value of the second compound decreased by 2-fold or more when EPZ-5676 was added as compared to the DMSO control)

Compound: CN(C)C(=O)c1cc2cnc(Nc3ccc(N4CCNCC4)cn3)nc2n1C1CCCC1 [LEE011]
- MOLM-13 (summary of combination study: EPZ-5676 + 2nd compound) (MOLM-13 cells): Synergy (considered synergistic if the IC50 value of the second compound decreased by 2-fold or more when EPZ-5676 was added as compared to the DMSO control)
- SKM-1 (summary of combination study: EPZ-5676 + 2nd compound) (SKM-1 cells; [3]): Synergy (considered synergistic if the IC50 value of the second compound decreased by 2-fold or more when EPZ-5676 was added as compared to the DMSO control)

Compound: Cc1sc2c(c1C)C(c1ccc(Cl)cc1)=N[C@@H](CC(N)=O)c1nnc(C)n1-2 [CPI-203]
- MOLM-13 (summary of combination study: EPZ-5676 + 2nd compound) (MOLM-13 cells): Synergy (considered synergistic if the IC50 value of the second compound decreased by 2-fold or more when EPZ-5676 was added as compared to the DMSO control)
- SKM-1 (summary of combination study: EPZ-5676 + 2nd compound) (SKM-1 cells; [3]): Synergy (considered synergistic if the IC50 value of the second compound decreased by 2-fold or more when EPZ-5676 was added as compared to the DMSO control)

Compound: C=C(c1ccc(C(=O)O)cc1)c1cc2c(cc1C)C(C)(C)CCC2(C)C [Bexarotene]
- MOLM-13 (summary of combination study: EPZ-5676 + 2nd compound) (MOLM-13 cells): Synergy (considered synergistic if the IC50 value of the second compound decreased by 2-fold or more when EPZ-5676 was added as compared to the DMSO control)
- SKM-1 (summary of combination study: EPZ-5676 + 2nd compound) (SKM-1 cells; [3]): Synergy (considered synergistic if the IC50 value of the second compound decreased by 2-fold or more when EPZ-5676 was added as compared to the DMSO control)

Compound: CS(=O)(=O)N1CCN(Cc2cc3nc(-c4cccc5[nH]ncc45)nc(N4CCOCC4)c3s2)CC1 [GDC-0941]
- MOLM-13 (summary of combination study: EPZ-5676 + 2nd compound) (MOLM-13 cells): Synergy (considered synergistic if the IC50 value of the second compound decreased by 2-fold or more when EPZ-5676 was added as compared to the DMSO control)
- SKM-1 (summary of combination study: EPZ-5676 + 2nd compound) (SKM-1 cells; [3]): Synergy (considered synergistic if the IC50 value of the second compound decreased by 2-fold or more when EPZ-5676 was added as compared to the DMSO control)

Compound: COc1ccc(-c2ccc3c(N4CCOCC4)nc(N4C[C@@H](C)O[C@@H](C)C4)nc3n2)cc1CO [KU 0063794]
- MOLM-13 (summary of combination study: EPZ-5676 + 2nd compound) (MOLM-13 cells): Synergy (considered synergistic if the IC50 value of the second compound decreased by 2-fold or more when EPZ-5676 was added as compared to the DMSO control)
- SKM-1 (summary of combination study: EPZ-5676 + 2nd compound) (SKM-1 cells; [3]): Synergy (considered synergistic if the IC50 value of the second compound decreased by 2-fold or more when EPZ-5676 was added as compared to the DMSO control)

Compound: C[C@H]1C[C@@H]2[C@H]([C@@H](O)C[C@@]3(C)[C@H]2CC[C@]3(O)C(=O)CO)[C@@]2(C)C=CC(=O)C=C12 [Methylprednisolone]
- SKM-1 (summary of combination study: EPZ-5676 + 2nd compound) (SKM-1 cells; [3]): Synergy (considered synergistic if the IC50 value of the second compound decreased by 2-fold or more when EPZ-5676 was added as compared to the DMSO control)

Compound: Arsenic Trioxide
- SKM-1 (summary of combination study: EPZ-5676 + 2nd compound) (SKM-1 cells): 2.0

Compound: CCN(CC)CCNC(=O)c1c(C)[nH]c(/C=C2\C(=O)Nc3ccc(F)cc32)c1C [Sunitinib Malate]
- SKM-1 (summary of combination study: EPZ-5676 + 2nd compound) (SKM-1 cells; [3]): 2.0

Compound: CC(C)C[C@H](NC(=O)CNC(=O)c1cc(Cl)ccc1Cl)B(O)O [MLN2238]
- SKM-1 (summary of combination study: EPZ-5676 + 2nd compound) (SKM-1 cells; [3]): Synergy (considered synergistic if the IC50 value of the second compound decreased by 2-fold or more when EPZ-5676 was added as compared to the DMSO control)
